Measured values as given in article PMC10122656, “Siglec-6 mediates the uptake of extracellular vesicles through a noncanonical glycolipid binding pocket” (Nature Communications, 2023).
Where “and” joins values, the source holds several entries; their conditions need not be identical. Equal entries are not always repeated.

Experiments:
Assay in all cases: Cell assay (liposome/EV binding, flow cytometry)
Format in all cases: cell-based
CD22 R120A CHO cells = target: T1, CD22 R120A CHO cells (Homo sapiens, UniProt P20273, R120A); details: 3 mol% ganglioside liposomes, replicates
T1 construct: expressed in transfected cells
T1 sequence (P20273 20-847 R120A): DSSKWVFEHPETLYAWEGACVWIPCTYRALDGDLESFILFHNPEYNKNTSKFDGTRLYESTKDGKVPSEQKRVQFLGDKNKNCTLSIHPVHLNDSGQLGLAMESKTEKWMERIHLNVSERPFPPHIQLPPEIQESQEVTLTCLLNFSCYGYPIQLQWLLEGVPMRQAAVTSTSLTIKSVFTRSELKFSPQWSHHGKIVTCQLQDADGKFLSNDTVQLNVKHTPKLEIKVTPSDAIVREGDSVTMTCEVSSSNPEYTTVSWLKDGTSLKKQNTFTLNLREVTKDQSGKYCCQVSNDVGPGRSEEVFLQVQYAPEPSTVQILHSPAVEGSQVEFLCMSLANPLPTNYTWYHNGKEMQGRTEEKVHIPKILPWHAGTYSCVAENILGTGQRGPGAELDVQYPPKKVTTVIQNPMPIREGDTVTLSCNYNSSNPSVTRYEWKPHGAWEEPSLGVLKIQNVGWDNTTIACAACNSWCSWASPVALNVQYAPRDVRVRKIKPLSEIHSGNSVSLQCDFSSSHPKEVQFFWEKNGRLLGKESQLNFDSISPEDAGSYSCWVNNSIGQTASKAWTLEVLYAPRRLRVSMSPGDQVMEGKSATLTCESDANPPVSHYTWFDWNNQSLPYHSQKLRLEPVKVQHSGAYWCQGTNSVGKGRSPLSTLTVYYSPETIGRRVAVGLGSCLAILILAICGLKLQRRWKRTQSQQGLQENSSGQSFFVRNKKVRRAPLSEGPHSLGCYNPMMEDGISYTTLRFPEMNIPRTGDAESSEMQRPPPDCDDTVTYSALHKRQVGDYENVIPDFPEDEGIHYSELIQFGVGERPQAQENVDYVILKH
Description: (§1) Stock lipids (DSPC, Cholesterol, PEG45–DSPE) solutions were prepared by solvating the lipids in chloroform. An appropriate volume of each lipid solution was transferred to a glass test tube to reach the desired mol% of the component. The chloroform was then removed under N2 gas to yield a lipid thin film. Once dry, 100 µL of DMSO was added to the lipid-containing test tube and then the functional lipids (ganglioside, AF647–PEG45–DSPE, Siglec ligand–PEG45–DSPE, pHrodo–PEG45–DSPE, NGL) was added from their respect DMSO stock solution. The lipid mixture was then stored at −80 °C until completely frozen at which point excess DMSO was removed via lyophilization. Dry lipids were then stored at −80 °C until they were extruded. Lipid suppliers can be found in Supplementary Table 4.
(§2) Dry lipids were then hydrated in 1 mL of PBS. The lipids were then sonicated in a bath sonicator in a cycle of 1 min on, 5 min off for a total of five cycles. Liposomes were then extruded using an Avanti mini extruder first using an 800 nm filter and then a 100 nm filter yielding liposomes that were 130 ± 35 nm (Supplementary Table 5) measured using a Malvern Panalytical Zetasizer Nano S. Liposomes were stored at 4 °C.
(§3) 200,000 cells/well were plated into a 96-well U-bottom microplate and centrifuged at 300 × g for 5 min. The cells were then resuspended in 50 µL of 50 µM liposome/50 µg/mL (protein concentration) of EV solution in DMEM F12 5% FBS and incubated at 37 °C for 30 min. Excess liposomes were then removed via centrifuged at 300 × g for 5 min followed by washing the cells with FACS solution. The cells were then resuspended in (1:250 V/V) anti-Siglec-flow buffer (1% V/V FBS, 500 µM, EDTA Hank’s Balanced Salt Solution pH 7.4), solution and left to rest on ice for 30 min. The cells were then centrifuged again at 300 × g for 5 min and the cells were resuspended in FACS buffer solution and were then ready for analysis by flow cytometry. Information regarding antibody clone, catalog number supplier, label isotype, and dilution can be found in Supplementary Table 6. The Siglec-positive cells were gated on for liposome-binding analysis (Supplementary Fig. 1b).
(§4) Flow cytometry measurements were collected on a 5-laser Fortessa X-20 (BD Bioscience). All the resulting data were analyzed using FlowJo (10.5.3) software (BD Biosciences).

[1] = target: T2, Siglec-15 R143A CHO cells (Homo sapiens, UniProt Q6ZMC9, K274L/R143A); details: Sig-15 R143A; 3 mol% ganglioside liposomes; replicates
T2 construct: expressed in transfected cells
T2 sequence (Q6ZMC9 20-328 R143A/K274L): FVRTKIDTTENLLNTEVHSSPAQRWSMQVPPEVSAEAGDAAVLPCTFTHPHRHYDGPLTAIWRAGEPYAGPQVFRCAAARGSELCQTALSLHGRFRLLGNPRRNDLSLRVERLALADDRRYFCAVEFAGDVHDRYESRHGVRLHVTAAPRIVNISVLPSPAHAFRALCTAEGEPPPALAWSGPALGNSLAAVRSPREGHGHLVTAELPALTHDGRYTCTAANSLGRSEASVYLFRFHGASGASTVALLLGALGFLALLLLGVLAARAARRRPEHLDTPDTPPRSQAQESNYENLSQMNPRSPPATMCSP
Description: as §1, §2, §3, §4

[2] = target: T3, Siglec-11 R120A CHO cells (Homo sapiens, UniProt Q96RL6, R132A); details: Sig-11 R120A; 3 mol% ganglioside liposomes; replicates
T3 construct: expressed in transfected cells
T3 sequence (Q96RL6 28-698 R132A): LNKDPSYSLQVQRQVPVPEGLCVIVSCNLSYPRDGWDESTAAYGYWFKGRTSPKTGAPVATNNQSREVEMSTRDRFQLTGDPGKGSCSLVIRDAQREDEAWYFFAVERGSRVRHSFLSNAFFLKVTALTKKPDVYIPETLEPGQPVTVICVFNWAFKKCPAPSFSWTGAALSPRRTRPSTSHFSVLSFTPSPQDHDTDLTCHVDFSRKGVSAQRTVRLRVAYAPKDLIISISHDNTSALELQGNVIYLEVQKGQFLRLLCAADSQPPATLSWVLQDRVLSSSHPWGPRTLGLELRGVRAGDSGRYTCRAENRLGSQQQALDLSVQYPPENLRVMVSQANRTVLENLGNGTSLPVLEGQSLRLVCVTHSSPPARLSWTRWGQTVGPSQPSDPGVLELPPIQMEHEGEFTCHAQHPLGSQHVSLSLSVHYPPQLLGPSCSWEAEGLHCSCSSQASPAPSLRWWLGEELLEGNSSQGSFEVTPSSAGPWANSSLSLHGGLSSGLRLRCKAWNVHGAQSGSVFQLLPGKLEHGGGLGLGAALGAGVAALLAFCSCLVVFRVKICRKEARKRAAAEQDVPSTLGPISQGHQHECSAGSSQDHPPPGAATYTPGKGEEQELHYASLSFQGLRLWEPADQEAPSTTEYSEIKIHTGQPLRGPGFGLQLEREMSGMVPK
Description: as §1, §2, §3, §4

Siglec-8 WT CHO cells = target: T4, Siglec-8 WT CHO cells (Homo sapiens, UniProt Q9NYZ4); details: Sig-8 WT; 3 mol% ganglioside liposomes; replicates
T4 construct: expressed in transfected cells
T4 sequence (Q9NYZ4 17-499): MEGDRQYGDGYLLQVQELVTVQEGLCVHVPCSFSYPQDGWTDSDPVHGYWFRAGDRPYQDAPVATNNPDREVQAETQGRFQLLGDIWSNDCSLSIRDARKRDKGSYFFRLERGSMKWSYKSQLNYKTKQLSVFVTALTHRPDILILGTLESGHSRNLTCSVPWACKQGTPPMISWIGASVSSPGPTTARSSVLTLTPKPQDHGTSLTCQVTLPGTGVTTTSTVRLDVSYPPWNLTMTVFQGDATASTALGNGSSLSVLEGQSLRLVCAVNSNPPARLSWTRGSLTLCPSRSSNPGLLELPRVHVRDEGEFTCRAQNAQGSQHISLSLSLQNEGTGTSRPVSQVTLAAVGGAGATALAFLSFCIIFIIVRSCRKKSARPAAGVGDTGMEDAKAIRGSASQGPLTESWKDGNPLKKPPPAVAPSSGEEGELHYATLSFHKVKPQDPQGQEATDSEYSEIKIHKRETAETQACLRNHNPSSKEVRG
Description: as §1, §2, §3, §4

Substance | log10(MFI AF647) of GLL relative to log10(MFI AF647) of the same GLL against UT CHO cells (Fig. 2a) (CD22 R120A CHO cells) | log10(MFI AF647) of GLL relative to log10(MFI AF647) of the same GLL against UT CHO cells (Fig. 2a) [1] | log10(MFI AF647) of GLL relative to log10(MFI AF647) of the same GLL against UT CHO cells (Fig. 2a) [2] | log10(MFI AF647) of GLL relative to log10(MFI AF647) of the same GLL against UT CHO cells (Fig. 2a) (Siglec-8 WT CHO cells)
GD1a | 0.09 and 0.1 and 0.05 and 0.08 | -0.02 and -0.07 and -0.06 and -0.05 | -0.11 and -0.13 and -0.12 (2×) | -0.17 and -0.14 and -0.12 and -0.13
GD1b | 0.03 and 0.02 and -0.01 and 0.01 | -0.12 and -0.14 (3×) | -0.11 (2×) and -0.12 (2×) | -0.17 (2×) and -0.15 (2×)
GD3 | 0.09 and 0.1 (2×) and 0.11 | 0.02 and -0.02 and 0 and -0.01 | -0.1 and -0.11 and -0.12 (2×) | -0.11 and -0.06 and -0.09 and -0.01
GM1 | 0.06 and 0.04 and -0.02 and 0.03 | -0.08 and -0.12 (2×) and -0.11 | 0.1 and 0.05 and 0.07 and 0.13 | -0.02 (3×) and 0.04
GM2 | 0.1 (2×) and 0.12 and 0.08 | -0.02 (2×) and -0.04 and -0.03 | -0.07 (2×) and -0.06 (2×) | -0.18 (2×) and -0.15 and -0.17
GM3 | -0.15 and -0.16 and -0.17 and -0.18 | -0.11 (2×) and -0.12 (2×) | -0.13 (3×) and -0.12 | -0.22 and -0.18 and -0.2 and -0.17
GM4 | 0.11 and 0.12 and 0.09 and 0.1 | -0.08 and -0.09 and -0.11 and -0.1 | -0.11 (2×) and -0.1 (2×) | -0.15 (2×) and -0.14 and -0.13
GQ1b | -0.05 and -0.03 and -0.04 and -0.06 | -0.11 (2×) and -0.12 and -0.08 | -0.19 (2×) and -0.22 and -0.18 | -0.02 (2×) and -0.04 and 0.24
GT1b | 0.05 and 0.04 (2×) and 0.06 | -0.03 and -0.06 and -0.05 (2×) | -0.17 (2×) and -0.16 and -0.19 | -0.21 and -0.22 and -0.23 and -0.19
